Test results reported in patent publication US6521654B2, “Substituted imidazolidine derivatives, their preparation, their use and pharmaceutical preparations including them” (Aventis Pharma Deutschland GmbH, priority 1997, dated 2003).

The compounds below were run against T1, interaction between VCAM-1 and VLA-4 (Homo sapiens, UniProt P05556+P13612) (assay: U937/VCAM-1 cell adhesion test (adhesion of U937 cells to hVCAM-1(1-3)-IgG)). Details: concentration leading to 50% inhibition of adhesion of human U937 cells (ATCC CRL 1593) to hVCAM-1(1-3)-IgG.
T1 construct: supplied in their natural form as surface molecules on human U937 cells; host or cells: U937 cells carry endogenous VLA-4; The partner hVCAM-1(1-3)-IgG was made in house in transfected COS cells (ATCC CRL1651) and used as culture supernatant
T1 sequence (P13612 34-1032): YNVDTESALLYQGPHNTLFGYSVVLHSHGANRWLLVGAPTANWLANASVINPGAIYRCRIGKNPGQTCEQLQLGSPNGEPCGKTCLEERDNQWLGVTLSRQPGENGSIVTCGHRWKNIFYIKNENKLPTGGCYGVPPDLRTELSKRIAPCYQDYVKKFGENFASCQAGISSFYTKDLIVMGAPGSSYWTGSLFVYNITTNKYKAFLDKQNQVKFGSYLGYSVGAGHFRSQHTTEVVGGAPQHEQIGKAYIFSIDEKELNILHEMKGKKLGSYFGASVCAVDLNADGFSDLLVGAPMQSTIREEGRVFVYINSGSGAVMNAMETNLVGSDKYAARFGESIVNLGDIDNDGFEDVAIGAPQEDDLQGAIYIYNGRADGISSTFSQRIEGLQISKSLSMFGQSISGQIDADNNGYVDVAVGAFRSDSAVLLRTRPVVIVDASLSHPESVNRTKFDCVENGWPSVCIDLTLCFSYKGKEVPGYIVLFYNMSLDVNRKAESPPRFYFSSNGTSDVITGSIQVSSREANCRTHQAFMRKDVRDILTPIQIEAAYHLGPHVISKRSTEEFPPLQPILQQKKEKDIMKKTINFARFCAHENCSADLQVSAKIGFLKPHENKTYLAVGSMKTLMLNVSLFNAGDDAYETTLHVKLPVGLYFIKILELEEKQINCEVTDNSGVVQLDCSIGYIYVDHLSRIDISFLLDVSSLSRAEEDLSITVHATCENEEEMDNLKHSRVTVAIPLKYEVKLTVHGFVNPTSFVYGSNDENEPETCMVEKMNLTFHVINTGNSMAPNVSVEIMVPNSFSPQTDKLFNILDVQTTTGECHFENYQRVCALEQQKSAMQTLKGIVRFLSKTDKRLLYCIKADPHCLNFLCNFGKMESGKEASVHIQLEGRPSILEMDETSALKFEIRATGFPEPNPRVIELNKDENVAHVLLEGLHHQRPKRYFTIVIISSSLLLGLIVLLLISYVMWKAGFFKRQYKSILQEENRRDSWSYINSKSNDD
T1 sequence (P05556 21-798): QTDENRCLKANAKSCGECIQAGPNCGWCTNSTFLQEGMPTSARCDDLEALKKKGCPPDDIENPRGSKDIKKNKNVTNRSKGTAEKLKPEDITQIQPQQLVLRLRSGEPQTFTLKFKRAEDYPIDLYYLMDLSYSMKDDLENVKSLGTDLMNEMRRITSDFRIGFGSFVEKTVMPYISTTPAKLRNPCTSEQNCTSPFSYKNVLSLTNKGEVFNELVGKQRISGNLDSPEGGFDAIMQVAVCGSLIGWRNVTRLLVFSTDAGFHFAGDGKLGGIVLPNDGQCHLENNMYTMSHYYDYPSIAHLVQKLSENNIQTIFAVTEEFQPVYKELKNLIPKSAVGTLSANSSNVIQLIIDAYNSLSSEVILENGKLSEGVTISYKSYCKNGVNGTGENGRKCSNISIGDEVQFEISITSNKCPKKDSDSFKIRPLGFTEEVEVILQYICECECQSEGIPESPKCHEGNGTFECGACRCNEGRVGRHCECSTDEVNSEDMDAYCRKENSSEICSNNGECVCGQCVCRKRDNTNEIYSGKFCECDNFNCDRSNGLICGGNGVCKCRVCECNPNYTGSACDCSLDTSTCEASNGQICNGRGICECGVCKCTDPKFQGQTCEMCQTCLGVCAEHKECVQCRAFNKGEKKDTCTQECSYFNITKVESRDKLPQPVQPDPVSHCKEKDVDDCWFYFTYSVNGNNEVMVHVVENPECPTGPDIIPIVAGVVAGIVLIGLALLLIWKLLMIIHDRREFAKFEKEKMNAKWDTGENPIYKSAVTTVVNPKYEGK
Assay type: cell-based
Description: The test method used for the activity of the compounds of the formula I on the interaction between VCAM-1 and VLA-4 is the assay described below which is specific for this interaction. The cellular binding components, i.e., the VLA-4 integrins, are supplied in their natural form as surface molecules on human U937 cells (ATCC CRL 1593). which belong to the leucocytes group. The specific binding components used are genetically engineered recombinant soluble fusion proteins, consisting of the extracytoplasmatic domain of human VCAM-1 and the constant region of a human immunoglobulin of the subclass IgG1.
Assay for the Measurement of the Adhesion of U937 Cells (ATCC CRL 1593) to hVCAM-1(1-3)-IgG
1. Preparation of Human VCAM-1 (1-3)-IgG and Human CD4-IgG
A genetic construct for the expression of the extracellular domain of human VCAM-1, associated with the genetic sequence of the heavy chain of human immunoglobulin IgG1 (hinge, CH2 and CH3 regions), from Dr. Brian Seed, Massachusetts General Hospital. Boston, USA was employed (cf. Damle and Aruffo, Proc. Natl. Acad. Sci. USA 1991, 88, 6403-6407). The soluble fusion protein hVCAM-1(1-3)-IgG contained the three amino-terminal extracellular immunoglobulin-like domains of human VCAM-1 (Damle and Aruffo, Proc. Natl. Acad. Sci. USA 1991, 88, 6403-6407). CD4-IgG (Zettimeissl et al., DNA and Cell Biology 1990, 9, 347) served as a fusion protein for negative controls. The recombinant proteins were expressed as soluble proteins after DEAE/dextran-mediated DNA transfection in COS cells (ATCC CRL1651) according to standard procedures (Ausubel et al., Current Protocols in Molecular Biology, John Wiley & Sons, Inc., 1994).
2. Assay for the Measurement of the Adhesion of U937 Cells to hVCAM-1 (1-3)-IgG
2.1 96-well microtiter test plates (Nunc Maxisorb) were incubated at room temperature for 1 hour with 100 μl/well of a goat-anti-human IgG antibody solution (10 μg/ml in 50 mM tris, pH 9.5). After removal of the antibody solution, washing was carried out once with PBS.
2.2 150 μl/well of a blocking buffer (1% BSA in PBS) were incubated on the plates at room temperature for 0.5 hour. After removal of the blocking buffer, washing was carried out once with PBS.
2.3 100 μl per well of a cell culture supernatant of transfected COS cells were incubated on the plates at room temperature for 1.5 hours. The COS cells were transfected with a plasmid which codes for the three N-terminal immunoglobulin-like domains of VCAM-1, coupled to the Fc part of human IgG1 (hVCAM-1 (1-3)-IgG). The content of hVCAM-1 (1-3)-IgG was about 0.5-1 μg/ml. After removal of the culture supernatant, washing was carried out once with PBS.
2.4 The plates were incubated at room temperature for 20 minutes with 100 μl/well of Fc receptor blocking buffer (1 mg/ml of γ-globulin, 100 mM NaCl, 100 μM MgCl2, 100 μM MnCl2, 100 μM CaCl2, 1 mg/ml of BSA in 50 mM HEPES, pH 7.5). After removal of the Fc receptor blocking buffer, washing was carried out once with PBS.
2.5 20 μl of binding buffer (100 mM NaCl, 100 μM MgCl2, 100 μM MnCl2, 100 μM CaCl2, 1 mg/ml of BSA in 50 mM HEPES, pH 7.5) were initially introduced, and the substances to be tested were added in 10 μl of binding buffer and incubated for 20 minutes. The controls used were antibodies against VCAM-1 (BBT, No. BBA6) and against VLA-4 (immunotech, No. 0764).
2.6 U937 cells were incubated in Fc receptor blocking buffer for 20 minutes and then added by pipette in a concentration of 1×10^6/ml and in an amount of 100 μl per well ([…]).
2.7 The plates were slowly immersed at an angle of 45° in stop buffer (100 mM NaCl, 100 μM MgCl2, 100 μM MnCl2, 100 μM CaCl2 in 25 mM tris, pH 7.5) and shaken off. The process was repeated.
2.8 50 μl/well of a dye solution (16.7 μg/ml of Hoechst Dye 33258, 4% formaldehyde, 0.5% triton X-100 in PBS) were then incubated on the plates for 15 minutes. […]
`Cc1ccccc1NC(=O)Nc1ccc(CN2C(=O)N([C@@H](CC(C)C)C(=O)N[C@@H](CC(=O)O)C(=O)N[C@H](C(=O)N3CCC[C@H]3C(=O)O)C(C)C)C(=O)C2(C)C)cc1` [Example 133, ((S)-2-(4,4-Dimethyl-3-(4-(3-(2-methylphenyl)ureido)benzyl)-2,5-dioxoimidazolidin-1-yl)-2-(2-methylpropyl)acetyl)-L-aspartyl-L-valyl-L-proline] showed an IC50 of 1.5 nM. In the case of `COc1ccc(C(CC(=O)O)NC(=O)C(CC(C)C)N2C(=O)N(Cc3ccc(NC(=O)Nc4ccccc4C)cc3)C(C)(c3ccccc3)C2=O)cc1` (stereo not shown) [Example 193], the IC50 is reported as 15 nM. In the case of `CC(C)C[C@@H](C(=O)N[C@@H](CC(=O)O)C(=O)N[C@H](C(=O)O)c1ccccc1)N1C(=O)N(Cc2ccc(NC(=O)NCc3ccccc3)cc2)C(C)(C)C1=O` [Example 58], the IC50 is reported as 450 nM. `CC(C)C[C@@H](C(=O)N[C@@H](CC(=O)O)C(=O)N[C@H](C(=O)O)c1ccccc1)N1C(=O)N(Cc2ccc(NC(=O)Nc3ccccc3Cl)cc2)C(C)(C)C1=O` [Example 62] showed an IC50 of 5 nM. `CC(C)C[C@@H](C(=O)N[C@@H](CC(=O)O)c1ccc2c(c1)OCO2)N1C(=O)N(Cc2ccc(NC(=O)Nc3ccccc3)cc2)C(C)(C)C1=O` [Example 5, (S)-3-((S)-2-(4,4-Dimethyl-3-(4-(3-phenylureido)benzyl)-2,5-dioxoimidazolidin-1-yl)-2-(2-methylpropyl)acetylamino)-3-(3,4-methylenedioxyphenyl)propionic Acid] gave an IC50 of 5 nM. For `Cc1cccc(C)c1NC(=O)Nc1ccc(CN2C(=O)N(CC(=O)N[C@@H](CC(=O)O)c3ccccc3)C(=O)C2(C)C)cc1` [Example 42], the IC50 was 470 nM. `CC1(C)C(=O)N(CC(=O)N[C@@H](CC(=O)O)C(=O)NC2C3CC4CC(C3)CC2C4)C(=O)N1Cc1ccc(NC(=O)Nc2ccccc2)cc1` (stereo partly drawn) [Example 24, (2-(4,4-Dimethyl-3-(4-(3-phenylureido)benzyl)-2,5-dioxoimidazolidin-1-yl)-acetyl)-L-(2-adamantyl)aspartamide] showed an IC50 of 6 nM. In the case of `Cc1ccccc1NC(=O)Nc1ccc(CN2CC(=O)N(CC(=O)N(C)[C@@H](CC(=O)O)C(=O)NC3C4CC5CC(C4)CC3C5)C2=O)cc1` (stereo partly shown) [Example 20], the IC50 is reported as 160 nM. Work on `CC(C)C[C@@H](C(=O)N[C@@H](CC(=O)O)C(=O)N[C@H](C(=O)O)c1ccccc1)N1C(=O)N(Cc2ccc(NC(=O)Nc3ccccc3C(F)(F)F)cc2)C(C)(C)C1=O` [Example 68] yielded an IC50 of 300 nM. In the case of `CCc1cccc(C)c1NC(=O)Nc1ccc(CN2C(=O)N(CC(=O)N[C@@H](CC(=O)O)c3ccccc3)C(=O)C2(C)C)cc1` [Example 41], the IC50 is reported as 1470 nM.
